Patent publication US11628153B2, “Agent for preventing or amelioriting nocturia” (Kao Corporation, priority 2018, dated 2023)

System: Spontaneously Hypertensive Rats (SHRs)
Assay: Urination behavior recording in metabolic cages after 8 weeks of oral intake of rosmarinic acid-containing feed (urinary frequency, urine volume)
Assay type: in vivo, rat
Details: for Mean urinary frequency of rats during rest period / Mean urine volume of rats during rest period / Mean urinary frequency of rats during activity period / Mean urine volume of rats during activity period: 0.5 mass % rosmarinic acid feed, 8 weeks, mean ± standard error, n=12; for Significant difference in mean urinary frequency, treatment vs control group / Significant difference in mean urine volume, treatment vs control group: Student-t test
Excerpt: For the test, Spontaneously Hypertensive Rats (SHRs, see American Journal of Physiology, 1998, vol. 275, p. R1279-1286 and Neurourology and Urodynamics, 2005, vol. 24, p. 295-300) (42-week-old, female, obtained from Japan SLC) were used. SHRs in the treatment group (n=12) ingested, for 8 weeks, a rosmarinic acid-containing feed (composition: 0.5 mass % rosmarinic acid (obtained from Carbosynth, Inc.), 66 mass % starch, 20 mass % casein, 5 mass % corn oil, 4 mass % cellulose, 3.5 mass % mineral, and 1 mass % vitamin). SHRs in the control group (n=12) ingested, for 8 weeks, a rosmarinic acid-free feed (composition: 66.5 mass % starch, 20 mass % casein, 5 mass % corn oil, 4 mass % cellulose, 3.5 mass % mineral, and 1 mass % vitamin). Then, their urination behavior was recorded in metabolic cages. Note that, before the recording in the metabolic cages, 4-day adaptation period was provided, and they were reared individually. The urination behavior recording (measurement of the urinary frequency and the urine volume) was carried out under conditions with free access to feed and water and under conditions with a 12/12-h light/dark cycle. The urine volume was weighed with an electronic balance while the urine was collected every urination. Note that a past report (see Neurourology and Urodynamics, 2017, vol. 36, p. 1034-1038) was consulted; the start time of a light period corresponding to a rest period of each rat was set to ZT0; the light period was divided into two periods of ZT0-6 and ZT6-12; and the urinary frequency during each period was defined as an indicator for nocturia. In addition, a dark period corresponding to an activity period was divided into two periods of ZT12-18 and ZT18-24; and the urinary frequency during each period was defined as an indicator for daytime frequent urination. […] The results were means±standard errors. To compare the inter-group means, Student-t test was used.

O=C(/C=C/c1ccc(O)c(O)c1)O[C@H](Cc1ccc(O)c(O)c1)C(=O)O [rosmarinic acid]
Mean urinary frequency of rats during rest period (ZT0-6 (rest period)): 2.5 ± 0.2 times/6 h
Mean urine volume of rats during rest period (ZT0-6 (rest period)): 1.7 ± 0.1 mL/6 h
Significant difference in mean urinary frequency, treatment vs control group (ZT0-6 (rest period)): N.S.
Significant difference in mean urine volume, treatment vs control group (ZT0-6 (rest period)): N.S.
Mean urinary frequency of rats during rest period (ZT6-12 (rest period)): 2.4 ± 0.2 times/6 h
Mean urine volume of rats during rest period (ZT6-12 (rest period)): 1.1 ± 0.1 mL/6 h
Significant difference in mean urine volume, treatment vs control group (ZT6-12 (rest period)): N.S.
Mean urinary frequency of rats during activity period (ZT12-18 (activity period)): 6.7 ± 1.1 times/6 h
Mean urine volume of rats during activity period (ZT12-18 (activity period)): 2.4 ± 0.4 mL/6 h
Significant difference in mean urinary frequency, treatment vs control group (ZT12-18 (activity period)): N.S.
Significant difference in mean urine volume, treatment vs control group (ZT12-18 (activity period)): N.S.
Mean urinary frequency of rats during activity period (ZT18-24 (activity period)): 6.0 ± 0.7 times/6 h
Mean urine volume of rats during activity period (ZT18-24 (activity period)): 2.4 ± 0.2 mL/6 h
Significant difference in mean urinary frequency, treatment vs control group (ZT18-24 (activity period)): N.S.
Significant difference in mean urine volume, treatment vs control group (ZT18-24 (activity period)): N.S.
Significant difference in the mean urine volume during each time zone, treatment vs control group (all time zones (ZT0-24)): undetected
